Measured values published in patent US9206137B2, “N-Aryl pyrazole(thio)carboxamides” (BAYER INTELLECTUAL PROPERTY GMBH, priority 2010, dated 2015).

Tested on: Sphaerotheca fuliginea
Assay: Sphaerotheca test (cucumber)/preventive
Format: in vivo
Conditions: preventive
From the text: One day after this treatment, the plants are inoculated with an aqueous spore suspension of Sphaerotheca fuliginea.

Cc1ccccc1-c1ccccc1NC(=O)c1c(C(F)F)nn(C)c1F [102 from WO-2007/006806, 3-(difluoromethyl)-5-fluoro-1-methyl-N-(2′-methylbiphenyl-2-yl)-1H-pyrazole-4-carboxamide]
efficacy (Table A, dose 500 ppm): 20% | efficacy (500 ppm of active ingredient, evaluated 7 days after inoculation): less than 20%
